Values joined by “and” are separate entries in the source; they are usually repeats but may differ in a detail not shown here. Identical values can stand only once.
Key:
[1] = Stability of 667 COUMATE in vehicle; format: physicochemical; conditions: HPLC
STS = tested on: STS; set-up: method as in Ireson et al, 2003; conditions: ref Ireson et al, 2003; cited from earlier work
[2] = Pharmacokinetic study: plasma levels after single i.v. or p.o. dose; conditions: for half-life: t1/2β
Method: Female Wistar (155–165 g) rats were purchased from Charles River UK Ltd (Margate, Kent, UK) and housed in a dedicated animal facility. Rats received RM1 rodent maintenance diet (SDS, Kent, UK), water ad libitum and were maintained in positive pressure isolators under a 12 h light–dark cycle. These experiments were approved by the Imperial College Ethical Review Committee and met the standards required by the UKCCCR guidelines ([Workman et al, 1998]). […] Three rats were used for each time point. Rats were subjected to terminal anaesthesia (halothane) and blood was removed by cardiac puncture at 2.5, 5, 15, 30 and 45 min and 1, 3, 8, 16 and 24 h after i.v. administration. […] Plasma and RBCs were prepared from whole blood by centrifugation (2800 g, 4°C, 15 min). […] 7-Hydroxycoumarin (3 μg ml^−1) was used as an internal standard. The organic phase was decanted to a fresh tube and evaporated to dryness under a stream of air at room temperature. […] Briefly, RBCs were mixed with blank plasma (1 : 1, v v^−1) and mixed by inversion in order to reconstitute ‘whole blood’. 7-Hydroxycoumarin (3 μg ml^−1) was added to the whole blood (500 μl). […] Samples were thawed, vortexed for a further 5 min, centrifuged (15 000 g, 15 min) and the supernatant was removed and filtered ([…], acrodisc CR PTFE). The diethyl ether was removed under a stream of air. […] The residues were stored at −20°C in preparation for HPLC analysis.
Pharmacokinetic parameters were calculated using WinNonlin software (Pharsight Corporation, Mountview, CA, USA). The area under the curve (AUC) was calculated using the linear trapezoidal method with extrapolation of the terminal phase to infinity. Other parameters calculated were as follows: elimination rate constant (β); total body clearance (Cl)=dose/AUC; volume of distribution (Vd)=Cl/β; elimination half-life (t1/2β)=0.693/β; bioavailability (%F)=(AUCoral/AUCi.v.) × 100.

rat RBCs = experiment: Ex vivo uptake of 667 COUMATE / 667 COUMARIN by RBCs in whole blood; format: in vitro ADME
Method: (§1) Whole blood was removed from female Wistar rats, pooled, centrifuged (2800 g, 4°C, 15 min) and separated into RBCs and plasma. […] 667 COUMATE was also incubated with plasma only. Duplicate samples were maintained at 37°C for 0.5, 1, 3 and 24 h on rollers. Whole blood was acidified by addition of 1 M (pH 3) citrate buffer (9 : 1, v v^−1). […] Plasma was separated from other blood constituents by centrifugation (2800 g, 4°C, 15 min) and the radioactivity was counted.
(§2) The coefficients of variation (interday and intraday) were <10%.

[3] = tested on: E1S-stimulated nitrosomethylurea-induced mammary tumours; conditions: cited from earlier work
rat liver STS = conditions: cited from earlier work
[4] = In vivo uptake into RBCs after single p.o. or i.v. dose; conditions: female, Wistar, 10 mg kg^−1, rat
Description: Three rats were used for each time point.
as §2

[5] = Ex vivo stability in plasma and whole blood (667 COUMATE/667 COUMARIN ratio); format: in vitro ADME, rat
Method: as §1, with “Duplicate samples were maintained at 37°C for 0.5, 1, 3 and 24 h on rollers.” left out
as §2

[6] = set-up: method as in Ireson et al, 2003; conditions: by 4 h; ref Ireson et al, 2003; cited from earlier work
[7] = female, Wistar, rat, in vivo, iv, 10 mg/kg
[8] = female, Wistar, rat, in vivo, po, 10 mg/kg

Q: With `O=c1oc2cc(O)ccc2c2c1CCCCC2` [667 COUMARIN, 3-Hydroxy-6-oxo-8,9,10,11-tetrahydro-7H-cyclohepta-[c] [1] benzopyran] as the molecule, how does the “level of degradation product 667 COUMARIN in vehicle” value ([1]; 667 COUMATE in vehicle on ice for up to 6 h) read?
A: The value was “below the limit of detection”.

Q: What about the STS inhibitory activity (STS) of the same molecule?
A: Its STS inhibitory activity is “devoid of any STS inhibitory activity”.

Q: What about the “formation as metabolite of 667 COUMATE in vivo” value ([2]; rat plasma after i.v. or p.o. 667 COUMATE) of the same molecule?
A: The value was “only a minor metabolic product”.

Q: What about the “effect of acetazolamide preincubation on uptake into RBCs” value (rat RBCs; whole rat blood preincubated with acetazolamide (100 μM)) of the same molecule?
A: The value was “did not affect this uptake”.

Q: What about the “uptake into RBCs” value (rat RBCs; whole rat blood, 667 COUMARIN 10 μg ml^−1, no acetazolamide) of the same molecule?
A: The value was 50%.

Q: For `NS(=O)(=O)Oc1ccc2c3c(c(=O)oc2c1)CCCCC3` [667 COUMATE, 6-oxo-8,9,10,11-tetrahydro-7H-cyclohepta-[c] [1] benzopyran-3-O-sulphamate], which stability in vehicle ([1]; THF : PEG-400 : water 1:6:3, on ice for up to 6 h) is on record?
A: Its stability in vehicle is “stable”.

Q: And the “inhibition of STS activity in mammary tumours” value ([3]; nitrosomethylurea-induced mammary tumours in rats, ref Purohit et al, 2000)?
A: Its value is “almost completely inhibit STS activity”.

Q: What about the “growth of E1S-stimulated tumours” value ([3]; nitrosomethylurea-induced rat mammary model, ref Purohit et al, 2000, 2001) of the same molecule?
A: Its value is “causes a reduction in the growth”.

Q: What about the “inhibition of rat liver STS” value (rat liver STS; 10 mg kg^−1, ref Purohit et al, 2000, 2001) of the same molecule?
A: Its value is 93%.

Q: What about the “duration of STS inhibition in vivo after a single dose” value (rat liver STS; rat, hepatic STS, ref Purohit et al, 2001) of the same molecule?
A: The value was “up to 24 h”.

Q: What about the Cl ([2]; 10 mg kg^−1 bolus i.v., rat, Cl=dose/AUC) of the same molecule?
A: The Cl was 53.5 ± 2.6 mL/h.

Q: What about the t1/2β ([2]; 10 mg kg^−1 p.o., rat plasma) of the same molecule?
A: The t1/2β was 1.97 ± 0.3 h.

Q: And the Cl ([2]; 10 mg kg^−1 p.o., rat, Cl=dose/AUC)?
A: Its Cl is 54 mL/h and 54.2 ± 2.4 mL/h.

Q: And the Vd ([2]; 10 mg kg^−1 p.o., rat, Vd=Cl/β)?
A: The Vd was 0.1532 ± 0.0187 L/kg.

Q: What about the concentration at 8 h ([2]; female, Wistar, rat, in vivo, 10 mg kg^−1) of the same molecule?
A: Its concentration at 8 h is > 100 ng/mL.

Q: What about the bioavailability ([2]; female, Wistar, rat, in vivo, 10 mg kg^−1, %F (bioavailability), 10 mg kg^−1 p.o. vs i.v., rat, (AUCoral/AUCi.v.) × 100) of the same molecule?
A: Its bioavailability is 95%.

Q: What about the AUC [2, 7] of the same molecule?
A: The AUC was 35800 ± 1300 ng·h/mL.

Q: And the Cmax [2, 7]?
A: The Cmax was 22800 ± 600 ng/mL.

Q: And the Vd [2, 7]?
A: The Vd was 0.0939 ± 0.0029 L/kg.

Q: What about the k el [2, 7] of the same molecule?
A: Its k el is 0.000167 s⁻¹.

Q: And the clearance ([2]; female, Wistar, rat, in vivo, iv, 10 mg/kg, Cl, 10 mg kg^−1 bolus i.v., Cl=dose/AUC)?
A: The clearance was 0.883 mL/min.

Q: And the half-life ([2]; female, Wistar, rat, in vivo, iv, 10 mg/kg, 10 mg kg^−1 bolus i.v., rat plasma)?
A: Its half-life is 1.2 ± 0.1 h.

Q: What about the AUC [2, 8] of the same molecule?
A: The AUC was 34400 ± 1100 ng·h/mL.

Q: What about the Cmax [2, 8] of the same molecule?
A: The Cmax was 11900 ± 400 ng/mL.

Q: And the k el [2, 8]?
A: The k el was 8.33e-05 s⁻¹.

Q: What about the half-life ([2]; female, Wistar, rat, in vivo, po, 10 mg/kg, 10 mg kg^−1 p.o., rat plasma) of the same molecule?
A: The half-life was 2 h.

Q: What about the “time at which maximum level in plasma was attained” value ([2]; oral dosing 10 mg kg^−1, rat) of the same molecule?
A: The value was 30 min.

Q: What about the “time for which 667 COUMATE could be detected in plasma” value ([2]; single 10 mg kg^−1 i.v. or p.o. dose, rat) of the same molecule?
A: Its value is “up to 8 h”.

Q: What about the concentration at 30 min ([4]; iv, 30 min after i.v. administration) of the same molecule?
A: Its concentration at 30 min is 19000 ng/mL.

Q: What about the concentration at 30 min ([4]; po, 30 min after p.o. administration) of the same molecule?
A: Its concentration at 30 min is 12000 ng/mL.

Q: And the “parent compound remaining in plasma” value ([5]; plasma, 3 h incubation)?
A: The value was “below the limit of detection”.

Q: And the “parent compound remaining in whole blood” value ([5]; whole blood, after 48 h incubation)?
A: The value was “could still be detected”.

Q: What about the “percentage of agent removed on incubation with plasma” value [6] of the same molecule?
A: Its value is 80%.

Q: What about the “percentage of agent retained by the RBCs” value (rat RBCs; 24 h after addition to whole rat blood) of the same molecule?
A: Its value is 48%.

Q: And the “percentage of agent taken up by RBCs (two independent analytical methods)” value (rat RBCs; added to rat whole blood ex vivo)?
A: The value was “more than 70%”.

Q: And the “uptake into RBCs after preincubation with acetazolamide” value (rat RBCs; whole rat blood preincubated 30 min with acetazolamide (100 μM))?
A: Its value is 50%.

Q: And the “percentage of agent associated with the RBC fraction” value (rat RBCs; whole rat blood, 30 min incubation, 37°C, 10 μg ml^−1, HPLC)?
A: Its value is “more than 80%”.

Source: paper PMC2409900 (British Journal of Cancer, 2004)
